Measured values reported in patent US20260262643A1, “HERBICIDAL BENZOXAZINES” (FMC CORPORATION, priority 2022, published 2026).

Key:
blackgrass [1] = assay: Test A preemergence; type: in vivo, Alopecurus myosuroides
How it was run: (§1)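 Greenhouse pot test, 10 days. Compound (non-phytotoxic solvent, surfactant) sprayed on soil at seeding or on seedlings at one- to two-leaf stage. Visual injury rated 0–100 against untreated plants.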

corn [2] = assay: Test A preemergence; type: in vivo, Zea mays
How it was run: as §1

foxtail, giant [3] = assay: Test A preemergence; type: in vivo, Setaria faberi
How it was run: as §1

goosegrass [4] = assay: Test A preemergence; type: in vivo, Eleusine indica
How it was run: as §1

kochia [5] = assay: Test A preemergence; type: in vivo, Bassia scoparia
How it was run: as §1

oat, wild [6] = assay: Test A preemergence; type: in vivo, Avena fatua
How it was run: as §1

pigweed, palmer [7] = assay: Test A preemergence; type: in vivo, Amaranthus palmeri
How it was run: as §1

ragweed [8] = assay: Test A preemergence; type: in vivo, Ambrosia artemisiifolia
How it was run: as §1

ryegrass, Italian [9] = assay: Test A preemergence; type: in vivo, Lolium multiflorum
How it was run: as §1

soybean [10] = assay: Test A preemergence; type: in vivo, Glycine max
How it was run: as §1

wheat [11] = assay: Test A preemergence; type: in vivo, Triticum aestivum
How it was run: as §1

blackgrass [12] = assay: Test A postemergence; type: in vivo, Alopecurus myosuroides
How it was run: as §1

corn [13] = assay: Test A postemergence; type: in vivo, Zea mays
How it was run: as §1

foxtail, giant [14] = assay: Test A postemergence; type: in vivo, Setaria faberi
How it was run: as §1

goosegrass [15] = assay: Test A postemergence; type: in vivo, Eleusine indica
How it was run: as §1

kochia [16] = assay: Test A postemergence; type: in vivo, Bassia scoparia
How it was run: as §1

oat, wild [17] = assay: Test A postemergence; type: in vivo, Avena fatua
How it was run: as §1

pigweed, palmer [18] = assay: Test A postemergence; type: in vivo, Amaranthus palmeri
How it was run: as §1

ragweed [19] = assay: Test A postemergence; type: in vivo, Ambrosia artemisiifolia
How it was run: as §1

ryegrass, Italian [20] = assay: Test A postemergence; type: in vivo, Lolium multiflorum
How it was run: as §1

soybean [21] = assay: Test A postemergence; type: in vivo, Glycine max
How it was run: as §1

wheat [22] = assay: Test A postemergence; type: in vivo, Triticum aestivum
How it was run: as §1

galium = assay: Test A postemergence; type: in vivo, Galium aparine
How it was run: as §1

barnyardgrass = assay: Test B flooded paddy test; type: in vivo, Echinochloa crus-galli; conditions: 250 g ai/ha, Flood, 13 days, 0 to 100 scale (0 no effect, 100 complete control)
How it was run: (§2)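 Flooded to 3 cm at treatment time, 2-leaf plants got the test compound applied straight into the paddy water. They then stayed under constant flood in a greenhouse for 13 days. Ratings used a 0 to 100 visual scale.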

ducksalad = assay: Test B flooded paddy test; type: in vivo, Heteranthera limosa; conditions: 250 g ai/ha, Flood, 13 days, 0 to 100 scale (0 no effect, 100 complete control)
How it was run: as §2

rice = assay: Test B flooded paddy test; type: in vivo, Oryza sativa; conditions: 250 g ai/ha, Flood, 13 days, 0 to 100 scale (0 no effect, 100 complete control)
How it was run: as §2

sedge, umbrella = assay: Test B flooded paddy test; type: in vivo, Cyperus difformis; conditions: 250 g ai/ha, Flood, 13 days, 0 to 100 scale (0 no effect, 100 complete control)
How it was run: as §2

[23] = 125 g ai/ha, visual injury after 10 days, 0 to 100 scale, 0 is no effect, 100 is complete control
[24] = 500 g ai/ha, 0 to 100 scale (0 no effect, 100 complete control), 10 days
[25] = 125 g ai/ha, postemergence, 10 days, visual injury, 0 to 100 scale (0 no effect, 100 complete control)
[26] = 500 g ai/ha, Postemergence, 0 to 100 scale

CCc1cccc2c1OC(C)CN2C(=O)c1cccc(-n2cncn2)c1 (stereo not drawn) [Compound 43]
70: Plant response rating, Foxtail, Giant (foxtail, giant [14]; [26])
100: Plant response rating, Soybean (soybean [21]; [26])
50: Plant response rating, Pigweed, Palmer (pigweed, palmer [18]; [25])
30: Plant response rating, Corn (corn [13]; [26]) | Plant response rating, Kochia (kochia [16]; [26]) | Plant response rating, Ryegrass, Italian (ryegrass, Italian [20]; [25]) | Plant response rating, Wheat (wheat [22]; [26]) | Plant response rating, Galium (galium; [25])
90: Plant response rating, Foxtail, Giant (foxtail, giant [3]; [24]) | Plant response rating, Goosegrass (goosegrass [4]; [24]) | Plant response rating, Oat, Wild (oat, wild [6]; [24]) | Plant response rating, Ryegrass, Italian (ryegrass, Italian [9]; [24])
20: Plant response rating, Corn (corn [2]; [24]) | Plant response rating, Oat, Wild (oat, wild [6]; [23]) | Plant response rating, Ragweed (ragweed [8]; [24]) | Plant response rating, Oat, Wild (oat, wild [17]; [26]) | Plant response rating, Pigweed, Palmer (pigweed, palmer [18]; [26])
80: Plant response rating, Pigweed, Palmer (pigweed, palmer [7]; [24]) | Plant response rating, Soybean (soybean [21]; [25])
10: Plant response rating, Blackgrass (blackgrass [1]; [23]) | Plant response rating, Corn (corn [2]; [23]) | Plant response rating, Wheat (wheat [11]; [24]) | Plant response rating, Corn (corn [13]; [25]) | Plant response rating, Foxtail, Giant (foxtail, giant [14]; [25]) | Plant response rating, Kochia (kochia [16]; [25]) | Plant response rating, Wheat (wheat [22]; [25])
40: Plant response rating, Blackgrass (blackgrass [1]; [24]) | Plant response rating, Soybean (soybean [10]; [24]) | Plant response rating, Goosegrass (goosegrass [15]; [26])
0: Plant response rating, Kochia (kochia [5]; [23]) | Plant response rating, Kochia (kochia [5]; [24]) | Plant response rating, Pigweed, Palmer (pigweed, palmer [7]; [23]) | Plant response rating, Ragweed (ragweed [8]; [23]) | Plant response rating, Wheat (wheat [11]; [23]) | Plant response rating, Blackgrass (blackgrass [12]; [25]) | Plant response rating, Blackgrass (blackgrass [12]; [26]) | Plant response rating, Goosegrass (goosegrass [15]; [25]) | Plant response rating, Oat, Wild (oat, wild [17]; [25]) | Plant response rating, Ragweed (ragweed [19]; [25]) | Plant response rating, Ragweed (ragweed [19]; [26]) | Plant response rating, Barnyardgrass (barnyardgrass) | Plant response rating, Ducksalad (ducksalad) | Plant response rating, Rice (rice) | Plant response rating, Sedge, Umbrella (sedge, umbrella)
60: Plant response rating, Foxtail, Giant (foxtail, giant [3]; [23]) | Plant response rating, Goosegrass (goosegrass [4]; [23]) | Plant response rating, Ryegrass, Italian (ryegrass, Italian [9]; [23]) | Plant response rating, Ryegrass, Italian (ryegrass, Italian [20]; [26]) | Plant response rating, Galium (galium; [26])

Cc1cc(F)cc2c1OC(C)CN2C(=O)c1cccc(-n2cncn2)c1 (stereo not drawn) [Compound 44]
40: Plant response rating, Soybean (soybean [10]; [23]) | Plant response rating, Wheat (wheat [11]; [24]) | Plant response rating, Foxtail, Giant (foxtail, giant [14]; [25])
100: Plant response rating, Foxtail, Giant (foxtail, giant [3]; [24]) | Plant response rating, Goosegrass (goosegrass [4]; [24]) | Plant response rating, Ryegrass, Italian (ryegrass, Italian [9]; [24]) | Plant response rating, Soybean (soybean [21]; [25]) | Plant response rating, Soybean (soybean [21]; [26])
90: Plant response rating, Goosegrass (goosegrass [4]; [23]) | Plant response rating, Foxtail, Giant (foxtail, giant [14]; [26])
0: Plant response rating, Kochia (kochia [5]; [23]) | Plant response rating, Ragweed (ragweed [8]; [23]) | Plant response rating, Ragweed (ragweed [8]; [24]) | Plant response rating, Wheat (wheat [11]; [23]) | Plant response rating, Oat, Wild (oat, wild [17]; [25]) | Plant response rating, Ragweed (ragweed [19]; [25]) | Plant response rating, Ragweed (ragweed [19]; [26]) | Plant response rating, Barnyardgrass (barnyardgrass) | Plant response rating, Ducksalad (ducksalad) | Plant response rating, Rice (rice) | Plant response rating, Sedge, Umbrella (sedge, umbrella)
70: Plant response rating, Foxtail, Giant (foxtail, giant [3]; [23]) | Plant response rating, Soybean (soybean [10]; [24]) | Plant response rating, Corn (corn [13]; [26]) | Plant response rating, Goosegrass (goosegrass [15]; [26]) | Plant response rating, Galium (galium; [26])
20: Plant response rating, Kochia (kochia [5]; [24]) | Plant response rating, Pigweed, Palmer (pigweed, palmer [7]; [24]) | Plant response rating, Kochia (kochia [16]; [26])
50: Plant response rating, Oat, Wild (oat, wild [6]; [24]) | Plant response rating, Ryegrass, Italian (ryegrass, Italian [20]; [25]) | Plant response rating, Galium (galium; [25])
10: Plant response rating, Blackgrass (blackgrass [1]; [23]) | Plant response rating, Corn (corn [2]; [23]) | Plant response rating, Oat, Wild (oat, wild [6]; [23]) | Plant response rating, Pigweed, Palmer (pigweed, palmer [7]; [23]) | Plant response rating, Kochia (kochia [16]; [25]) | Plant response rating, Pigweed, Palmer (pigweed, palmer [18]; [26])
80: Plant response rating, Blackgrass (blackgrass [1]; [24]) | Plant response rating, Ryegrass, Italian (ryegrass, Italian [9]; [23]) | Plant response rating, Oat, Wild (oat, wild [17]; [26]) | Plant response rating, Ryegrass, Italian (ryegrass, Italian [20]; [26]) | Plant response rating, Wheat (wheat [22]; [26])
30: Plant response rating, Corn (corn [2]; [24]) | Plant response rating, Blackgrass (blackgrass [12]; [25]) | Plant response rating, Corn (corn [13]; [25]) | Plant response rating, Goosegrass (goosegrass [15]; [25]) | Plant response rating, Pigweed, Palmer (pigweed, palmer [18]; [25]) | Plant response rating, Wheat (wheat [22]; [25])
60: Plant response rating, Blackgrass (blackgrass [12]; [26])
